In patent US20100160356A1, “NOVEL CYCLOBUTYL COMPOUNDS AS KINASE INHIBITORS” (priority 2006, published 2010):

Legend:
IGF1R = IGF1R (Homo sapiens, UniProt P08069); assay: Inhibition of IGF1R (flashplate assay); type: biochemical; details: flashplate method
Procedure, shortened: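 IGF1R kinase incubated 1 hr at room temperature with ^33P-ATP and biotinylated poly(Glu,Tyr)4:1 ± test compound; stopped with EDTA, wells washed after 30 min. Bound radioactivity counted by scintillation; IC50 calculated.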

TGFβR1 = target: T1, TGFβR1 (Homo sapiens, UniProt P36897); assay: Inhibition of TGFβR1 (flashplate assay); type: biochemical; details: flashplate method
T1 sequence (P36897 34-503): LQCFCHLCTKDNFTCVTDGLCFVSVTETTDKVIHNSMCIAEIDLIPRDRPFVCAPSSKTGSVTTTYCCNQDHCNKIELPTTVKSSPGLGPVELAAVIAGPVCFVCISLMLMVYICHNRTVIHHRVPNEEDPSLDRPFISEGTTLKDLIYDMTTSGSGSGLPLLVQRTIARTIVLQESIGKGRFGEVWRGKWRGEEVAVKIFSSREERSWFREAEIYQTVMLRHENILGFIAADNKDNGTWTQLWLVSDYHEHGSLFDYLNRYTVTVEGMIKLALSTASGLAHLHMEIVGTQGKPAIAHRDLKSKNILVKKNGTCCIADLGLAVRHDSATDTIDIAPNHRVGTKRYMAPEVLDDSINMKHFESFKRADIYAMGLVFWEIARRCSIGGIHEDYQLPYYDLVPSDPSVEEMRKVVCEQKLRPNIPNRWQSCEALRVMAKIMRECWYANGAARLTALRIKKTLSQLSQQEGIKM
Procedure, shortened: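 Kinase was incubated 45 min with 33P-ATP and biotinylated substrate, with or without test substances, then stopped with EDTA. Incorporated radioactivity was counted by scintillation in a flashplate format. IC50 values were calculated from the counts.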

FAK = FAK (Homo sapiens, UniProt Q05397); assay: Inhibition of FAK (flashplate assay); type: biochemical; details: flashplate method
Experimental: The test plates used are 384-well flashplate microtitre plates from Perkin Elmer (USA). The components of the kinase reaction are pipetted into the assay plate. The FAK kinase is incubated for 3 hr. with radioactively labelled ^33P-ATP in the presence and absence of test substances in a total volume of 100 μl at room temperature together with biotinylated poly(Glu, Tyr)4:1. The reaction is terminated using 25 μl of a 200 mM EDTA solution. After incubation for a further 30 min at room temperature, the supernatants are removed by suction, and the wells are washed three times with 100 μl of 0.9% NaCl solution each time. The radioactivity is measured using a Topcount scintillation counter (PerkinElmer, USA). IC50 values are calculated using the RS1 computer program.

PDGFRβ = PDGFRβ (Homo sapiens, UniProt P09619); assay: Inhibition of PDGFRβ (flashplate assay); type: biochemical; details: flashplate method
Procedure, shortened: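 Autophosphorylation of PDGFRβ kinase with ^33P-ATP, ± test compound, 3 hr at room temperature in flashplates. Stopped with EDTA, washed, and bound radioactivity counted by scintillation. IC50 calculated from the counts.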

[1] = target: T2, FAK (focal adhesion kinase) (Homo sapiens, UniProt Q05397); assay: Inhibition of FAK (ELISA assay), FAK phosphorylation in cells; type: cell-based; details: human cells with FAK amplification
T2 construct: endogenous in cells; host or cells: Calu-6 or HT-29
Procedure, shortened: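 Cells pretreated 45 min with increasing compound concentrations, with a reference inhibitor series as internal control. FAK from lysates captured by specific antibody on ELISA plate or LUMINEX beads; tyrosine phosphorylation detected with anti-phosphotyrosine antibody by chemiluminescence or fluorescence.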

IGF1 receptor (IGF1R) = target: T3, IGF1 receptor (IGF1R) (Homo sapiens, UniProt P08069); assay: Inhibition of IGF1R (ELISA assay), IGF1-stimulated autophosphorylation in cells; type: cell-based; details: human tumour cells stimulated with IGF1, read-out: IC50 IGF (ELISA)
T3 construct: endogenous in cells; host or cells: MCF-7 or Calu-6
Procedure, shortened: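 Cells were preincubated 45 min with increasing compound concentrations, then stimulated 5 min with IGF1. Phospho-IGF1R in lysates was captured by a receptor-specific antibody and detected with anti-phosphotyrosine antibody via chemiluminescence ELISA or fluorescent LUMINEX read-out.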

T3 sequence (P08069 31-1367): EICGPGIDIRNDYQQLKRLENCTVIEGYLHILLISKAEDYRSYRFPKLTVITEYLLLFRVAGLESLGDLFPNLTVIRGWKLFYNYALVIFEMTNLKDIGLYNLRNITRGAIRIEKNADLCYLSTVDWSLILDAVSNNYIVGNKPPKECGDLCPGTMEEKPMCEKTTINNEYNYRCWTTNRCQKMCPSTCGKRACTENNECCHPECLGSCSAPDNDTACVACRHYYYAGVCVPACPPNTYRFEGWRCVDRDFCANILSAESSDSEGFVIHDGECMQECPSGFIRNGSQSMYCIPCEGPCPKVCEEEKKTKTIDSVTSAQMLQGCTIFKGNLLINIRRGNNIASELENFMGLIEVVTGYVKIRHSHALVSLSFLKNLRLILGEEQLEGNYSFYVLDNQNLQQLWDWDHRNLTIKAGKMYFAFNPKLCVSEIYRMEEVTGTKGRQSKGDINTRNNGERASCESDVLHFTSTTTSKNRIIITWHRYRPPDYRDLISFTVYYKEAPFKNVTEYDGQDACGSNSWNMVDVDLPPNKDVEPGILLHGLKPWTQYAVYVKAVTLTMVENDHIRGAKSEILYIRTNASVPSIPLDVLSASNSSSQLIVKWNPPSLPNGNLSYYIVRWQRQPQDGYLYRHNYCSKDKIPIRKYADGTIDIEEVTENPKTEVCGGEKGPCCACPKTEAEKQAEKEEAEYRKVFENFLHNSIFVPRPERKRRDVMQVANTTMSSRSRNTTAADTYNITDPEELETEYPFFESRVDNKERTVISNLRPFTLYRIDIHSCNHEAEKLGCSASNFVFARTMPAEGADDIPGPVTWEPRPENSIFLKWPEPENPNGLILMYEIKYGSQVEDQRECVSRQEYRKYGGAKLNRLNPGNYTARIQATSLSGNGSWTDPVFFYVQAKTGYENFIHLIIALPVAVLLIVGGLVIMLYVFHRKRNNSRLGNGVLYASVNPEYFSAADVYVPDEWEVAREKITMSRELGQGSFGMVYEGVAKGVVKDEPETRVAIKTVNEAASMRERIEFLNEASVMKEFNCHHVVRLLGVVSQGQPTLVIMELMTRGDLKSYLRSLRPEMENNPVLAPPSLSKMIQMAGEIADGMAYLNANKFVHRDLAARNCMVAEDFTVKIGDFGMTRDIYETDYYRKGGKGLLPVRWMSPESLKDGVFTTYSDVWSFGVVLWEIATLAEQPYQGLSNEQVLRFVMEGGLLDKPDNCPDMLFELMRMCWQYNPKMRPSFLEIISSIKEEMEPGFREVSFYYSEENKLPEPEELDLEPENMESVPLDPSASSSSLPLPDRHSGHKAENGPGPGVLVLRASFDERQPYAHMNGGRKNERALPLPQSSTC
IGF1R, sequence (P08069 31-1367, species assumed): as the sequence (P08069 31-1367) above
FAK, sequence (Q05397 whole entry, species assumed): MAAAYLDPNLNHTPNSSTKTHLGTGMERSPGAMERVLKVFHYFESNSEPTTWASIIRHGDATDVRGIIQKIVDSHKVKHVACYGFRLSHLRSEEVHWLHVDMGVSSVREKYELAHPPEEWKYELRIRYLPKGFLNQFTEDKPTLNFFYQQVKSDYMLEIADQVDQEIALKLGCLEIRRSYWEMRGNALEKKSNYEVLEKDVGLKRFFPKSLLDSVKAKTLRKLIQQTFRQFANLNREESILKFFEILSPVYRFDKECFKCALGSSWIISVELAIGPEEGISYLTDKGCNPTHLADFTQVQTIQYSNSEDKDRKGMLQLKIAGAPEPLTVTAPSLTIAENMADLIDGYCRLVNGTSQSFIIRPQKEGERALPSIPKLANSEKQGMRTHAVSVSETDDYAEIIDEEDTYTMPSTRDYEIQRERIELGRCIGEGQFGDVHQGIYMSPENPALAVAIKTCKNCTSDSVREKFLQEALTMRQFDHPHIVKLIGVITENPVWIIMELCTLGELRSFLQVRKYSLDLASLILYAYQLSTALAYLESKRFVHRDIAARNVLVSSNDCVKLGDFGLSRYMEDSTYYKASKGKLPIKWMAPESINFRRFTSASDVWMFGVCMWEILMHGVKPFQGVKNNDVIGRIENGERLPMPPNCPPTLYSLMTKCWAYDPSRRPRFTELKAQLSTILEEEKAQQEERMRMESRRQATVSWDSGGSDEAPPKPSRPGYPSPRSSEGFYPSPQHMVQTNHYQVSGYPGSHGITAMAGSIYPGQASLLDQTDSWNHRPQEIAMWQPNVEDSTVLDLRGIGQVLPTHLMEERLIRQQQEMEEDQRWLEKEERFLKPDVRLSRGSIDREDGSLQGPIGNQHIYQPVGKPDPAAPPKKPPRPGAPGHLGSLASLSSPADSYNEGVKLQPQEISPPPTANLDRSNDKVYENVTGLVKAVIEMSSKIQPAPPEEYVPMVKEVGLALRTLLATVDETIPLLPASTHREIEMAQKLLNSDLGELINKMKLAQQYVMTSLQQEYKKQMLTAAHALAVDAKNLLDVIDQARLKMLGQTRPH
T2 sequence (Q05397 whole entry): as the sequence (Q05397 whole entry, species assumed) above
PDGFRβ, sequence (P09619 33-1106, species assumed): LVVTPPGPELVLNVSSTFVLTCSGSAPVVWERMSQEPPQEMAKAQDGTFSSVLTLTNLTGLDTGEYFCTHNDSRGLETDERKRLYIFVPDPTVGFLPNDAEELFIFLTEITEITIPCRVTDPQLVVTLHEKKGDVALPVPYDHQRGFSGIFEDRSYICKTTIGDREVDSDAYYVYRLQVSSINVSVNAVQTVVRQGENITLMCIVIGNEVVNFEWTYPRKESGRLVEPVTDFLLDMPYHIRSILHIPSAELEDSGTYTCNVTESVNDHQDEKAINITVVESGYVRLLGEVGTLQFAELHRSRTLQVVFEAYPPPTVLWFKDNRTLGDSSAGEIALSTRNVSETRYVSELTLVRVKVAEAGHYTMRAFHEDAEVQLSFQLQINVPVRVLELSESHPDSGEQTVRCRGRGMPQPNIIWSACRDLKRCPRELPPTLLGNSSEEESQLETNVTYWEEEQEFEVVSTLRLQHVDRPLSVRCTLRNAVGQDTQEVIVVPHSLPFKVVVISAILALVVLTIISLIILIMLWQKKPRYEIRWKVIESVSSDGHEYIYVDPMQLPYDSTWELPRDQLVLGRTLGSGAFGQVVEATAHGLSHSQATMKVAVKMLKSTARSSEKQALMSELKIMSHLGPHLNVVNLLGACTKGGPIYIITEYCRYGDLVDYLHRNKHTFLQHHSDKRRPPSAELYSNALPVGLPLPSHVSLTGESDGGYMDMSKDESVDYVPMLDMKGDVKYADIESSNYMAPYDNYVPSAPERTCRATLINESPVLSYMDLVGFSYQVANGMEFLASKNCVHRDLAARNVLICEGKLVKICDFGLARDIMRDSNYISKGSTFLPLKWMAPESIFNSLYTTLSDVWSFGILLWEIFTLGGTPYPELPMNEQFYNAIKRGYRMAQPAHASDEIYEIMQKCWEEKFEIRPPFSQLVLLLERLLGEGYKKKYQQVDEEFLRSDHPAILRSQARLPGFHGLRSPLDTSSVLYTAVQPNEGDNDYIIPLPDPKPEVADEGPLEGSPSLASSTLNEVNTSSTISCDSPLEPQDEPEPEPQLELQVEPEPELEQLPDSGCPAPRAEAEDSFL

IC50 (IGF1R) [nM]	IC50 (TGFβR1) [nM]	IC50 (FAK) [nM]	IC50 (PDGFRβ) [nM]	IC50 [1] [nM]	IC50 (IGF1 receptor (IGF1R)) [nM]	Structure (SMILES)
60	120	1800	97	77	2400	Nc1ncnc2c1c(-c1cccc(O)c1)cn2C1CC(CN2CCCC2)C1 (centres unmarked) [Compound 1, 3-[4-amino-7-(3-pyrrolidin-1-ylmethylcyclobutyl)-7H-pyrrolo[2,3-d]pyrimidin-5-yl]phenol]
110	140	2700	120	260	5900	Nc1ncnc2c1c(-c1cccc(O)c1)cn2C1CC(CN2CCCC2)C1 (centres unmarked) [Compound 2, 3-[4-Amino-7-(3-pyrrolidin-1-ylmethylcyclobutyl)-7H-pyrrolo[2,3-d]pyrimidin-5-yl]phenol]
930	180	7900	150	370	5000	NCC1CC(n2cc(-c3ccc4[nH]ccc4c3)c3c(N)ncnc32)C1 (centres unmarked) [Compound 3, 7-(3-Aminomethylcyclobutyl)-5-(1H-indol-5-yl)-7H-pyrrolo[2,3-d]pyrimidin-4-ylamine]
8400	210		170	6100	29000	NCC1CC(n2cc(-c3cc4ccccc4o3)c3c(N)ncnc32)C1 (centres unmarked) [Compound 37]
